We go through three molecules from patent US7951831B2, “Use of inhibitors of soluble epoxide hydrolase to synergize activity of COX and 5-LOX inhibitors” (The Regents of the University of California, priority 2005, dated 2011).

One series concerns COX-2 / COX-1. The conditions noted are these: the smaller the ratio, the more specific for COX-2; cited from earlier work.
Series [1] has as its system arachidonic acid metabolites in mouse plasma. Put plainly: plasma oxylipin metabolites in mice exposed to LPS (LC-MS/MS). It is filed as in vivo. The conditions noted are these: AUDA-BE 20 mg/Kg alone.
The subject of another series is COX-2 protein. Put plainly: Western immunoblot of COX-2 protein in livers of mice. It is filed as in vivo. The conditions noted are these: liver; LPS 10 mg/Kg i.p.; COX-2 inhibitor 50 mg/Kg or AUDA-BE 20 mg/Kg sc (FIG. 8).
A short description of series [2]: tail flick assay, without induction of pain. It is filed as in vivo, mice. The note with it: sc in oleic oil, responses after 90 minutes; no induction of pain. Here is the method:
Briefly, mice are kept under 12:12 h light: dark cycle and water and food is supplied ad libitum. Mice are trained for three days to the experimental chambers in 30 min sessions each time. The next day baseline readings are taken. Vehicle control (oleic oil) is then injected sc in the next day and measurements are taken. Two days later, animals are injected through the sc route with test compounds dissolved in the oil vehicle and their responses are recorded after 90 minutes.
Tail flick and hind paw withdrawal latency tests are conducted according to D'Amour and Smith, J Pharmacol Exp Ther 72:74-9 (1941), and Woolfe and McDonald, J Pharmacol Exp Ther, 80:300-7 (1944). In tail flick assays, mice are placed in restrainers and left undisturbed for 30 minutes. Readings are then taken by placing the posterior end of the tail onto a tail flick apparatus that has a radiant heat source set to 55 C. Five measurements per animal are taken at two-minute intervals. The latency to move the tail is recorded. In hind paw withdrawal assays, the mice are placed in an experimental chamber with a glass surface. The temperature of this surface is kept constant at 30° C. After a 30-minute period of acclimation, radiant heat is applied to the plantar surface of the hind paw. Five measurements per animal are taken at two-minute intervals. The latency to move the paw is recorded. […]

The target of a further series is T1, sEH (Homo sapiens, UniProt P34913).
T1 sequence (P34913 1-555): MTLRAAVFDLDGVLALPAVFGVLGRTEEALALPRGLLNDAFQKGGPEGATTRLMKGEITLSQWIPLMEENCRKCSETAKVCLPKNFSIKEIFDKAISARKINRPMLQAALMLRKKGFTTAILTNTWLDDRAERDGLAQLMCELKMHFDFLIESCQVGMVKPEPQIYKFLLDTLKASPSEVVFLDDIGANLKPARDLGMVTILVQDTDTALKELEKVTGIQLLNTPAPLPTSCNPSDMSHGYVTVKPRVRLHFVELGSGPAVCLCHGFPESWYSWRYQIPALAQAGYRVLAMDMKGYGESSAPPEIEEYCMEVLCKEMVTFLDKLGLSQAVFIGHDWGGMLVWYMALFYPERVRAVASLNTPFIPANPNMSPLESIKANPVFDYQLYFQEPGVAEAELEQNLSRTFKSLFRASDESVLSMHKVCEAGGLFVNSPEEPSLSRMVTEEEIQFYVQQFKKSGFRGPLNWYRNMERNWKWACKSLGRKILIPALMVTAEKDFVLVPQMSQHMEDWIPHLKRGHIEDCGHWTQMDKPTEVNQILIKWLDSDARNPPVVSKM
The series is described as follows: inhibition of soluble epoxide hydrolase. Format: biochemical. An excerpt:
Any of a number of standard assays for determining epoxide hydrolase activity can be used to determine inhibition of sEH. For example, suitable assays are described in Gill, et al., Anal Biochem 131, 273-282 (1983); and Borhan, et al., Analytical Biochemistry 231, 188-200 (1995)). Suitable in vitro assays are described in Zeldin et al., J Biol. Chem. 268:6402-6407 (1993). Suitable in vivo assays are described in Zeldin et al., Arch Biochem Biophys 330:87-96 (1996). […]
The enzyme also can be detected based on the binding of specific ligands to the catalytic site which either immobilize the enzyme or label it with a probe such as dansyl, fluoracein, luciferase, green fluorescent protein or other reagent. […] The enzyme also can be detected based on the generation of fluorescent products following the hydrolysis of the epoxide. […]

A further series is described as follows: metabolic stability. It is filed as in vitro ADME.

Protocol for COX-2 protein: Horizontal axis: treatment administered to the mice. First column: vehicle (oleic acid, administered subcutaneously (“s.c.” or “sc”)). Second column: lipopolysaccharide (“LPS”, 10 mg/Kg i.p.) and vehicle. […] Fifth column: AUDA-BE (20 mg/Kg sc). Sixth column: AUDA-BE (20 mg/Kg sc)+LPS (10 mg/Kg i.p.). […] Vertical axis: depicts percentage of protein induced in test animals receiving designated treatment compared to that of control mice receiving vehicle without LPS.
Western immunoblot analysis was performed with proteins isolated from liver to detect cycloxygenase 2 (COX-2). The isolated proteins were separated by electrophoresis on 10% SDS-PAGE and then transferred onto polyvinylidene fluoride membranes (Immobilon P, Millipore Corp., Bedford, Mass.). […] The membranes were incubated with rabbit anti-mouse HRP-linked IgG (Amersham, Arlington Heights, Ill.) at 1:10,000 dilution, washed, then contacted with secondary antibody and visualized using SuperSignal® West Femto Maximum Sensitivity Substrate (Pierce Biotechnology, Inc., Rockford, Ill.), a chemiluminiscence detection system, per manufacturer's instructions. The immunodetectable bands were quantified by densitometry with Kodak 1.D Image Analysis System v.

As for `CC(=O)Oc1ccccc1C(=O)O` [Aspirin, aspirin], in the series on COX-2 / COX-1, the “COX-2 (IC50)/COX-1 (IC50) ratio” value is reported as 0.32.

Regarding `CCCCOC(=O)CCCCCCCCCCCNC(=O)NC12CC3CC(CC(C3)C1)C2` [AUDA-BE, 12-(3-adamantane-1-yl-ureido)-dodecanoic acid butyl ester], in series [1], the “5-HETE, percentage of metabolite compared to control mice receiving vehicle without LPS” value is recorded as 262±21%; the “6-keto-PGF1a, percentage of metabolite compared to control mice receiving vehicle without LPS” value was found to be 128±6%; the “PGE2, percentage of metabolite compared to control mice receiving vehicle without LPS” value stood at 241±2%; the “ΣDHOME, percentage of metabolite compared to control mice receiving vehicle without LPS” value came to 141±15%. In series [1], the “ΣEpOME, percentage of metabolite compared to control mice receiving vehicle without LPS” value worked out at 122±8%. For the same molecule, the “amount of COX-2 relative to control mice” value in the series with COX-2 protein was “about 4 times”. Further, the “analgesic effect in tail flick assay” value in series [2] was “slight but significant analgesic effect”.

As for `CCCCCCCCCCCCNC(=O)NC12CC3CC(CC(C3)C1)C2` [ADU, N-Adamantyl-N′-dodecyl urea], the “activity as an inhibitor of sEH” value at sEH is reported as “particularly high activity”. Also, in “metabolic stability”, the metabolic stability result is “metabolically stable”.
